ChEMBL document CHEMBL5500426, “Directly Suppressing MYC Function with Novel Alkynyl-Substituted Phenylpyrazole Derivatives that Induce Protein Degradation and Perturb MYC/MAX Interaction” (J Med Chem, 2024)
Activity calls are given as the source filed them. No cut-off for these calls is given here.

What was measured:
[1] = Volume of distribution at steady state in Sprague-Dawley rat at 2 mg/kg,iv administration by LC-MS/MS analysis; format: ADME, organism-based; conditions: in vivo, read-out: Vdss
HL-60 = experiment: Antiproliferative activity against human HL-60 cells assessed as inhibition of cell growth incubated for 72 hrs by MTT assay; format: functional, cell-based; conditions: HL-60, 72 h
[2] = Half life in Sprague-Dawley rat at 2 mg/kg,iv administration by LC-MS/MS analysis; format: ADME, organism-based; conditions: in vivo
PC-3 [3] = experiment: Antitumor activity against human PC-3 cells xenografted in BALB/C mouse assessed as tumor growth inhibition at 50 mg/kg,ip administrated daily for 21 consecutive days relative to control; format: functional; conditions: read-out: TGI
MDA-MB-231 = experiment: Antiproliferative activity against human MDA-MB-231 cells assessed as inhibition of cell growth incubated for 72 hrs by MTT assay; format: functional, cell-based; conditions: MDA-MB-231, 72 h
HCT-116 = experiment: Antiproliferative activity against human HCT-116 cells assessed as inhibition of cell growth incubated for 72 hrs by MTT assay; format: functional, cell-based; conditions: HCT-116, 72 h
[4] = Cytotoxicity against human GES1 cells assessed as inhibition of cell growth incubated for 72 hrs by MTT assay; format: toxicity, cell-based
[5] = Toxicity in FVB mouse implanted with mouse Myc-CaP cells assessed as histopathological change in kidney at 10 to 50 mg/kg,ip administrated daily for 14 consecutive days by hematoxylin and eosin staining based microscopic analysis; format: organism-based; conditions: in vivo, dose 10-50 mg/kg
[6] = Toxicity in FVB mouse implanted with mouse Myc-CaP cells assessed as histopathological change in lung at 10 to 50 mg/kg,ip administrated daily for 14 consecutive days by hematoxylin and eosin staining based microscopic analysis; format: organism-based; conditions: in vivo, dose 10-50 mg/kg
[7] = Toxicity in BALB/C mouse xenografted with human PC-3 cells assessed as histopathological change in spleen at 50 to 100 mg/kg,ip administrated daily for 21 consecutive days by hematoxylin and eosin staining based microscopic analysis; format: organism-based; conditions: in vivo, dose 50-100 mg/kg
[8] = Toxicity in BALB/C mouse xenografted with human PC-3 cells assessed as body weight loss at 50 to 100 mg/kg,ip administrated daily for 21 consecutive days; format: organism-based; conditions: in vivo, dose 50-100 mg/kg
SGC-7901 = experiment: Antiproliferative activity against human SGC-7901 cells assessed as inhibition of cell growth incubated for 72 hrs by MTT assay; format: functional, cell-based; conditions: SGC-7901, 72 h
A549 = experiment: Antiproliferative activity against human A549 cells assessed as inhibition of cell growth incubated for 72 hrs by MTT assay; format: functional, cell-based; conditions: A549, 72 h
Myc-CaP [9] = experiment: Antitumor activity against mouse Myc-CaP cells implanted in FVB mouse assessed as reduction in tumor weight at ip administrated daily for 14 consecutive days; format: functional, organism-based
[10] = Toxicity in FVB mouse implanted with mouse Myc-CaP cells assessed as body weight loss at 10 to 50 mg/kg,ip administrated daily for 14 consecutive days; format: organism-based; conditions: in vivo, dose 10-50 mg/kg
Myc-CaP [11] = experiment: Antitumor activity against mouse Myc-CaP cells implanted in FVB mouse assessed as tumor growth inhibition at 10 mg/kg,ip administrated daily for 14 consecutive days relative to control; format: functional; conditions: read-out: TGI
MV4-11 = experiment: Antiproliferative activity against human MV4-11 cells assessed as inhibition of cell growth incubated for 72 hrs by MTT assay; format: functional, cell-based; conditions: MV4-11, 72 h
Myc-CaP [12] = experiment: Antitumor activity against mouse Myc-CaP cells implanted in FVB mouse assessed as tumor growth inhibition at 30 mg/kg,ip administrated daily for 14 consecutive days relative to control; format: functional; conditions: read-out: TGI
[13] = Toxicity in FVB mouse implanted with mouse Myc-CaP cells assessed as histopathological change in liver at 10 to 50 mg/kg,ip administrated daily for 14 consecutive days by hematoxylin and eosin staining based microscopic analysis; format: organism-based; conditions: in vivo, dose 10-50 mg/kg
Myc-CaP [14] = experiment: Antitumor activity against mouse Myc-CaP cells implanted in FVB mouse assessed as tumor growth inhibition at 50 mg/kg,ip administrated daily for 14 consecutive days relative to control; format: functional; conditions: read-out: TGI
PC-3 [15] = experiment: Antitumor activity against human PC-3 cells xenografted in BALB/C mouse assessed as tumor growth inhibition at 75 mg/kg,ip administrated daily for 21 consecutive days relative to control; format: functional; conditions: read-out: TGI
[16] = molecular target: Myc proto-oncogene protein (Homo sapiens) (UniProt P01106); experiment: Binding affinity to MYC in human PC-3 cells assessed as decrease in melting temperature at 10 uM with 37 to 52 degreeC incubated for 1 hr by CETSA based Western blotting analysis; format: cell-based
[17] = molecular target: Myc proto-oncogene protein (Homo sapiens) (UniProt P01106); experiment: Inhibition of MYC in human PC-3 cells assessed as downregulation of MYC expression at 10 uM incubated for 24 hrs in presence of proteasome inhibitor MG132 by Western blotting analysis; format: cell-based
SK-OV-3 = experiment: Antiproliferative activity against human SK-OV-3 cells assessed as inhibition of cell growth incubated for 72 hrs by MTT assay; format: functional, cell-based; conditions: SK-OV-3, 72 h
[18] = molecular target: Myc proto-oncogene protein (Homo sapiens) (UniProt P01106); experiment: Inhibition of MYC in human PC-3 cells assessed as downregulation of MYC expression at 1 uM incubated for 24 hrs by Western blotting analysis relative to control; format: cell-based
Myc-CaP [19] = experiment: Antiproliferative activity against mouse Myc-CaP cells assessed as inhibition of cell growth incubated for 72 hrs by MTT assay; format: functional, cell-based
HepG2 = experiment: Antiproliferative activity against human HepG2 cells assessed as inhibition of cell growth incubated for 72 hrs by MTT assay; format: functional, cell-based; conditions: HepG2, 72 h
[20] = Half life in Sprague-Dawley rat at 10 mg/kg,ip administration by LC-MS/MS analysis; format: ADME, organism-based; conditions: in vivo
[21] = Clearance in Sprague-Dawley rat at 2 mg/kg,iv administration by LC-MS/MS analysis; format: ADME, organism-based; conditions: in vivo
[22] = Bioavailability in Sprague-Dawley rat at 2 mg/kg,iv administration by LC-MS/MS analysis; format: ADME, organism-based; conditions: in vivo
[23] = Toxicity in FVB mouse implanted with mouse Myc-CaP cells assessed as histopathological change in spleen at 10 to 50 mg/kg,ip administrated daily for 14 consecutive days by hematoxylin and eosin staining based microscopic analysis; format: organism-based; conditions: in vivo, dose 10-50 mg/kg
[24] = molecular target: Protein max (Homo sapiens) (UniProt P61244); experiment: Binding affinity to MAX in human PC-3 cells assessed as effect on protein thermal stabilization at 10 uM with 37 to 58 degreeC incubated for 1 hr by CETSA based Western blotting analysis; format: cell-based
[25] = Clearance in Sprague-Dawley rat at 10 mg/kg,ip administration by LC-MS/MS analysis; format: ADME, organism-based; conditions: in vivo
[26] = Volume of distribution at steady state in Sprague-Dawley rat at 10 mg/kg,ip administration by LC-MS/MS analysis; format: ADME, organism-based; conditions: in vivo
MDA-MB-468 = experiment: Antiproliferative activity against human MDA-MB-468 cells assessed as inhibition of cell growth incubated for 72 hrs by MTT assay; format: functional, cell-based; conditions: MDA-MB-468, 72 h
SK-N-BE(2) = experiment: Antiproliferative activity against human SK-N-BE(2) cells assessed as inhibition of cell growth incubated for 72 hrs by MTT assay; format: functional, cell-based; conditions: SKNBE2, 72 h
Myc-CaP [27] = experiment: Antitumor activity against mouse Myc-CaP cells implanted in FVB mouse assessed as reduction in tumor volume at ip administrated daily for 14 consecutive days; format: functional, organism-based

Chain of Myc proto-oncogene protein (Homo sapiens) (P01106 whole entry): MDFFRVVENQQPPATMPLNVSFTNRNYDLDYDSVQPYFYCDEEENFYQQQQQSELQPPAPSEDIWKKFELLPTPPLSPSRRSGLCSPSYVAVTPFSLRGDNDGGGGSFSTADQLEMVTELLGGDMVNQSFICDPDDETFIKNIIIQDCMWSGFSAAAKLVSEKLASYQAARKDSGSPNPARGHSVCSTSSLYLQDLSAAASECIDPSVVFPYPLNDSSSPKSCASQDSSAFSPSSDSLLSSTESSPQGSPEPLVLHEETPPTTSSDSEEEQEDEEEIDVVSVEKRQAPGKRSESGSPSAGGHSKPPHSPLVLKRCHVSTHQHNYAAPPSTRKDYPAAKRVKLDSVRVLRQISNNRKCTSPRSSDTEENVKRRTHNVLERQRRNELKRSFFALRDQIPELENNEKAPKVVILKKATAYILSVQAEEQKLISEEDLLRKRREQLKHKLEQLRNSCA
Chain of Protein max (Homo sapiens) (P61244 whole entry): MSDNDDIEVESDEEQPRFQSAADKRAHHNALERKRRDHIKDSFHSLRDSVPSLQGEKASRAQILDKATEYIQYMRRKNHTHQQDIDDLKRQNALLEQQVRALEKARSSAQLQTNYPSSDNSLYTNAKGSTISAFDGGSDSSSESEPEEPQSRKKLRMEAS

SMILES: Oc1c(-c2cc(C(F)(F)F)n[nH]2)ccc(C#CCCN2CCOCC2)c1-c1ccc(Cl)c(C(F)(F)F)c1
- Vd [1]: 6.41 L/kg
- IC50 (HL-60): 1890 nM
- half-life [2]: 3.22 h
- inhibition in vivo at 50 mg/kg (PC-3 [3]): 33%
- IC50 (MDA-MB-231): 1350 nM
- IC50 (HCT-116): 1010 nM
- IC50 at 72 h [4]: > 100000 nM
- Activity [5]: Non-Toxic
- Activity [6]: Non-Toxic
- Activity [7]: Non-Toxic
- Activity [8]: Toxic
- IC50 (SGC-7901): 1960 nM
- IC50 (A549): 1240 nM
- Activity (Myc-CaP [9]): Dose-Dependent Effect
- Activity [10]: Non-Toxic
- inhibition in vivo at 10 mg/kg (Myc-CaP [11]): 37%
- IC50 (MV4-11): 890 nM
- inhibition in vivo at 30 mg/kg (Myc-CaP [12]): 67%
- Activity [13]: Non-Toxic
- inhibition in vivo at 50 mg/kg (Myc-CaP [14]): 85%
- inhibition in vivo at 75 mg/kg (PC-3 [15]): 69%
- Activity [16]: Active
- inhibition [17]: inactive
- IC50 (SK-OV-3): 1250 nM
- inhibition [18]: > 50%
- IC50 (Myc-CaP [19]): 550 nM
- IC50 (HepG2): 1090 nM
- half-life [20]: 5.97 h
- clearance [21]: 23.6 mL/min/kg
- bioavailability [22]: 31.7%
- Activity [23]: Non-Toxic
- Activity [24]: inactive
- CL/F [25]: 74 mL/min/kg
- Vdss [26]: 38.43 L/kg
- IC50 (MDA-MB-468): 4320 nM
- IC50 (SK-N-BE(2)): 1250 nM
- Activity (Myc-CaP [27]): Dose-Dependent Effect
